From patent publication US8188059B2, “Compounds and methods for modulating expression of GCGR” (Isis Pharmaceuticals, Inc., priority 2006, dated 2012)
e = 2'-O-(2-methoxyethyl) (MOE); d = 2'-deoxy (DNA)

How the values were obtained:
human SGLT2 = biological target: T1, human SGLT2 (Homo sapiens, UniProt P31639); conditions: cited from earlier work
T1 construct: host or cells: Xenopus oocytes (heterologous expression after injection)
T1 sequence (P31639 1-672): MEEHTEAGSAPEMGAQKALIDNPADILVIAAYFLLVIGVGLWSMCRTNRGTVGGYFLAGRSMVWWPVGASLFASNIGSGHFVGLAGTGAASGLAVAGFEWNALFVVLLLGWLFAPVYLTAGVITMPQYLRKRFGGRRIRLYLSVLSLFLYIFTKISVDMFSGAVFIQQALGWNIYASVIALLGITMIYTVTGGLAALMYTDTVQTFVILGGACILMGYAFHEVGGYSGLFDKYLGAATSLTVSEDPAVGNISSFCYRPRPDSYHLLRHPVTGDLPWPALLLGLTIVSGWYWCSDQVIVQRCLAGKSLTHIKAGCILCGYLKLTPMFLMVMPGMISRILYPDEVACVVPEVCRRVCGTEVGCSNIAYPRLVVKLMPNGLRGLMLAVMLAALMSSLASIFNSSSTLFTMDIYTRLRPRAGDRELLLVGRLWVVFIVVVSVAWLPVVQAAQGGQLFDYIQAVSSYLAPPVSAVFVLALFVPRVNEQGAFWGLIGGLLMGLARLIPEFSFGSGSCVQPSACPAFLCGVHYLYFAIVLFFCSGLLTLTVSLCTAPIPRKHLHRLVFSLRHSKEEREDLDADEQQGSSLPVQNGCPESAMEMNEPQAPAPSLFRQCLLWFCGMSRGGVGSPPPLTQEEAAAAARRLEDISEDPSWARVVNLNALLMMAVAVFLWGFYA

SGLT-2 mRNA [1] = assay: SGLT-2 mRNA levels in kidney of ZDF rats, parent versus 12 nucleobase compound (Example 10); type: in vivo, rat
Procedure: In a next study, ZDF rats were dosed intraperitoneally twice per week with 1.5 mg/kg of either ISIS 257016 or ISIS 370717, or with saline at a similar dosing schedule. ISIS 370717 is a 12 nucleobase antisense compound targeted to SGLT-2 nucleic acid comprising the sequence […] […] All cytidine residues are 5-methylcytidines.
The date support that ISIS 257016 is a prodrug having a 12 nucleotide pharmacophore.

SGLT-2 mRNA [2] = assay: SGLT-2 mRNA levels in kidney of normal rats after intrajejunal administration (Example 11); type: in vivo, rat; conditions: 100 mg/kg twice per week intrajejunal
mouse SGLT2 mRNA [3] = assay: Mouse SGLT2 mRNA levels in kidney, wing, gap and length variations (Example 12, Table 61); type: in vivo; conditions: mice
Procedure: ISIS 370717 1-10-1 MOE gapmer was used as a template to make sequence related oligos with varying motifs. The antisense compounds were designed to target different regions of the mouse or rat SGLT2 nucleic acid, using published sequences (GenBank accession number U29881.1, incorporated herein as SEQ ID NO: 1575, and GenBank accession number AJ292928.1, incorporated herein as SEQ ID NO: 1576, respectively).
The antisense compounds were analyzed for their effect on mouse SGLT2 mRNA levels. Data are ranges taken from three experiments in which mice were dosed twice per week for three weeks with 2.5, 0.5 or 0.1 umol/kg of the above MOE gapmers given by intraperitoneal injection. Mice were sacrificed 48 hours following last administration and evaluated for SGLT2 levels in kidney. SGLT2 mRNA levels were determined by RT, real-time PCR as described by other examples herein. PCR results were normalized to an internal ISIS control.

rat SGLT2 mRNA [4] = assay: Rat SGLT2 mRNA levels in kidney, 1-10-1 and 1-10-2 MOE gapmers, Sprague-Dawley rats (Example 13, Table 63); type: in vivo
Source text: 1-10-1 and 1-10-2 MOE gapmer antisense compounds, provided in Table 62, were designed to target different regions of the mouse or rat SGLT2 RNA. All short antisense compounds in Table 62 are chimeric oligonucleotides (“gapmers”) either 12 or 13 nucleotides in length, composed of a central “gap” segment consisting of ten 2′-deoxynucleotides, which are flanked on the 5′ side by a one-nucleoside “wing” and on the 3′ side by a two or one-nucleotide “wing”. […] All cytidine residues are 5-methylcytidines.
The short antisense compounds were analyzed for their effect on rat SGLT2 mRNA levels. Data are ranges taken from three experiments in which Male Sprague-Dawley rats (170-200 g) were dosed twice per week for three weeks with 450, 150 or 50 nmol/kg of either a 1-10-1 or 1-10-2 MOE gapmer given by intraperitoneal injection. Rats were sacrificed 48 hours following last administration and evaluated for SGLT2 mRNA levels in kidney. Target levels were determined by RT, real-time PCR as described by other examples herein. PCR results were normalized to an internal ISIS control.

mouse SGLT2 mRNA [5] = assay: Mouse SGLT2 mRNA levels in kidney, 1-10-1 MOE gapmers, Balb/c mice (Example 14, Table 65); type: in vivo
Procedure: The short antisense compounds were analyzed for their effect on mouse SGLT2 mRNA levels. Data was taken from three experiments in which Male 6-week old Balb/c mice were dosed twice per week for two weeks with 450, 150, or 50 nmol/kg of one of the above 1-10-1 MOE gapmers given by intraperitoneal injection. Mice were sacrificed 48 hours following last administration and evaluated for SGLT2 mRNA levels in kidney. Target levels were determined by RT, real-time PCR as described by other examples herein. PCR results were normalized to an internal ISIS control.

rat SGLT2 mRNA [6] = assay: Rat SGLT2 mRNA levels in kidney, 1-10-1 gapmers at 250 nmol/kg, Sprague-Dawley rats (Example 14, Table 66); type: in vivo; conditions: 250 nmol/kg i.p. twice per week for three weeks; Sprague-Dawley rats; kidney
Procedure: The effect of the above 1-10-1gapmers (see Table 64 above) on rat SGLT2 mRNA levels. Data are taken from four experiments in which male Sprague-Dawley rats (170-200 g) were dosed twice per week for three weeks with 250 nmol/kg given by intraperitoneal injection. Rats were sacrificed 48 hours following last administration and evaluated for SGLT2 mRNA levels in kidney. Target levels were determined by RT, real-time PCR as described by other examples herein. PCR results were normalized to an internal ISIS control.

O=C(CCc1ccc(O)cc1)c1c(O)cc(O)cc1O[C@@H]1O[C@H](CO)[C@@H](O)[C@H](O)[C@H]1O [phlorizin]
transport activity (human SGLT2; You et al., 1995): suppressed

CO[C@H]1O[C@H](CO)[C@@H](O)[C@H](O)[C@H]1O [α-MeG1c, α-methyl-D-glucopyranoside]
Km (human SGLT2; sodium-dependent transport (Kanai et al., 1994; You et al., 1995)): 1600 µM

ISIS 370717: SGLT2; TAGCCACCAACT 1-10-1 MOE gapmer, phosphorothioate (sugars from the 5' end e1 d10 e1, all phosphorothioate, methylation of C not given here)
pharmacological activity (SGLT-2 mRNA [1]; ZDF rats, 1.5 mg/kg i.p. twice per week, five weeks): similar | onset of action (SGLT-2 mRNA [1]; compared with ISIS 257016): faster onset of action | inhibition of SGLT2 expression in kidney (SGLT-2 mRNA [1]; day two after a single dose of 2.8 umoles/kg): ~80% | SGLT-2 mRNA reduced over the controls (SGLT-2 mRNA [2]): more than 80% | % change in SGLT2 expression relative to saline (mouse SGLT2 mRNA [3]; 0.1 umol/kg i.p. twice per week for three weeks): −55% | % change in SGLT2 expression relative to saline (mouse SGLT2 mRNA [3]; 0.5 umol/kg i.p. twice per week for three weeks): −70% | % change in SGLT2 expression relative to saline (rat SGLT2 mRNA [4]; 50 nmol/kg i.p. twice per week for three weeks): −55% | % change in SGLT2 expression relative to saline (rat SGLT2 mRNA [4]; 150 nmol/kg i.p. twice per week for three weeks): −70% | % change in SGLT2 expression relative to saline (rat SGLT2 mRNA [4]; 450 nmol/kg i.p. twice per week for three weeks): −70% | % change in SGLT2 expression relative to saline (mouse SGLT2 mRNA [5]; 50 nmol/kg i.p. twice per week for two weeks): −47.5% | % change in SGLT2 expression relative to saline (mouse SGLT2 mRNA [5]; 150 nmol/kg i.p. twice per week for two weeks): −55% | % change in SGLT2 expression relative to saline (mouse SGLT2 mRNA [5]; 450 nmol/kg i.p. twice per week for two weeks): −65% | % change in SGLT2 expression relative to saline (rat SGLT2 mRNA [6]): −70%
